This note sets out measurements from article PMC10814725, “In Vitro Anti-Inflammatory Study of Limonoids Isolated from Chisocheton Plants” (Current Issues in Molecular Biology, 2024).

SMILES strings stand for the structures.

What is called IC50 is the point on the concentration scale where inhibition reaches its midpoint. In general, viability refers to the share of living cells, or the viability signal relative to a control. Higher therefore signals less harm to the cells.

Data set [1] deals with IL-1β. The data set is described as follows: ELISA of IL-1β production in LPS-stimulated THP-1 cells. The data set is classed as cell-based, human. The following applies: 10 µM, compared to LPS (+)-stimulated group. As for the experimental part:
(§1) The logarithmic growth phase of THP-1 cells was achieved by seeding in 96-well plates at a density of 5 × 10^4 cells/well and differentiated for 24 h in the presence of PMA (0.5 μM solution in medium). After 24 h of incubation, the culture medium was removed from the 96-well plate and the cells were washed with PBS. Fresh RPMI-1640 medium supplemented with 0.1% FBS and 1% Penicillin–Streptomycin was added to each well and incubated at 37 °C overnight. The cells were pretreated with 17 limonoids at the corresponding concentration for 1 h, followed by the addition of LPS (10 ng/mL) and then incubation at 37 °C for 18 h. Finally, 50 μL of each culture supernatant solution was taken to determine the concentrations of IL-6, MCP-1, and IL-1β using the corresponding commercially available human ELISA kits following the manufacturer’s instructions. The analyte concentration in the supernatant was measured in pg/mL, and the inhibition level was expressed as a fold change compared to the LPS (−) control group. To determine the IC50 value, the dose-response data were normalized to the LPS-stimulated-only group, and the percentage of inhibition was calculated using the following formula: % Inhibition=(Absorbance of LPS+ control−Absorbance of compound treatment with LPS)/(Absorbance of LPS+ control−Absorbance of LPS− control)×100
(§2) Furthermore, the % inhibition data were interpolated into linear equations to determine the IC50 values.
For orientation: In an ELISA, binding on a coated surface is turned into a signal by an enzyme label.

Data set [2] concerns TNF-α. The data set is described as follows: ELISA of TNF-α production in LPS-stimulated THP-1 cells. The data set is classed as cell-based, human. The following applies: for Effect on TNF-α level: 10 µM, compared to LPS (+)-stimulated group, THP-1 cells; for IC50: Homo sapiens, THP-1, 18 h, LPS-stimulated (10 ng/mL) THP-1 cells, 1, 5, 10, 20 µM, 18 h, read-out: TNF-α IC50; for TNF-α SI (selectivity index, CC50/IC50): THP-1 CC50 / TNF-α IC50.

The nature of data set [3]: in vitro. The following applies: mouse. The data set is classed as cell-based.
Data set [4] has as its system phosphorylated-p38 MAPK. The data set is described as follows: Western blotting of phosphorylated-p38 MAPK in LPS-stimulated THP-1 cells. The data set is classed as cell-based, human. The following applies: 10 µM, LPS 10 ng/mL, 18 h, compared to LPS (+) group. The procedure:
THP-1 cells were seeded at a density of 1 × 10^6 cells/well in 24-well plates. The cells were then pretreated with a concentration of 10 µM of compounds 3, 5, 9, or 15 for 1 h. Subsequently, LPS (10 ng/mL) was added to the cells, which were incubated for 18 h. The protein concentrations were determined using a bicinchoninic acid (BCA) assay kit.
For Western blot analysis, proteins were separated by SDS-PAGE and transferred onto a polyvinylidene fluoride (PVDF) membrane. The membranes were blocked with 2.5% BSA in Tris-buffered saline-Tween (TBST) for 1 h at room temperature. After three washes with TBST, the membranes were incubated with a diluted primary antibody solution (anti-phosphorylated-p38 MAPK or anti-p38 MAPK) at a 1:1000 dilution for 1 h at room temperature. After three washes with TBS-T, the membranes were incubated with a secondary antibody conjugated to horseradish peroxidase (HRP; 1:4000 dilution) for 30 min at room temperature and subsequently detected by chemiluminescence. Finally, the bands were visualized and quantified using an ImageQuant 800 GxP system (Cytiva, MA, USA). The results were expressed as ratios relative to the reference protein β-actin.
In general terms: A western blot detects proteins with antibodies after separation by electrophoresis.

Data set [5] has as its system MCP-1. As to the kind of experiment: ELISA of MCP-1 production in LPS-stimulated THP-1 cells. The data set is classed as cell-based, human. As to conditions: for Effect on MCP-1 level: 10 µM, compared to LPS (+)-stimulated group, THP-1 cells; for IC50: Homo sapiens, LPS-stimulated (10 ng/mL) THP-1 cells, 1, 5, 10, 20 µM, 18 h; for MCP-1 SI (selectivity index, CC50/IC50): THP-1 CC50 / MCP-1 IC50. The procedure:
as §1, with “Fresh RPMI-1640 medium supplemented with 0.1% FBS and 1% Penicillin–Streptomycin was added to each well and incubated at 37 °C overnight.” left out
as §2

The test system of data set [6] is TNF-α, IL-6, IL-1β, and MCP-1. The data set is described as follows: ELISA of pro-inflammatory markers overall (TNF-α, IL-6, IL-1β, MCP-1) in LPS-stimulated THP-1 cells. The data set is classed as cell-based. The following applies: Homo sapiens, read-out: Overall IC50 values for the evaluated pro-inflammatory markers. Put shortly:
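PMA (0.5 μM)-differentiated THP-1 cells, rested overnight in 0.1% FBS medium, pretreated with compound 1 h, then LPS (10 ng/mL) for 18 h at 37 °C. Supernatant cytokines measured by human ELISA (pg/mL); % inhibition normalised to LPS+ and LPS− controls, IC50 by linear interpolation.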

As to `CC(=O)O[C@H]1[C@@H](O)[C@@]2(C)C3=CC[C@@H](c4ccoc4)[C@]3(C)CC[C@@H]2[C@@]2(C)C=CC(=O)C(C)(C)[C@H]12` [Compound 3, 6α-O-acetyl-7-deacetylnimocinol], the “Effect on IL-1β level” value in data set [1] is “significantly reduced”. In data set [2], the “Effect on TNF-α level” value is recorded as “significantly reduced”; the IC50 was determined as 9.18 µM; the “TNF-α SI (selectivity index, CC50/IC50)” value was 2.21. Besides, in data set [3], the viability at 5 µM is 90.3 ± 5.24%, the viability at 10 µM was found to be 91.4 ± 8.26% and the viability at 20 µM is 70.2 ± 2.29%. Besides, in data set [4], the “Effect on p-p38 MAPK levels” value is given as “significantly suppressed”. In data set [5], the “Effect on MCP-1 level” value was “significantly reduced”; the IC50 came out at 2.11 µM; the “MCP-1 SI (selectivity index, CC50/IC50)” value is on record as 9.61. The IC50 in data set [6] was less than 20 µM.

Take `CC(=O)O[C@H]1[C@@H](OC(C)=O)[C@@]2(C)C3=CC[C@@H](c4ccoc4)[C@]3(C)CC[C@@H]2[C@@]2(C)C=CC(=O)C(C)(C)[C@H]12` [Compound 5, dysobinin]: the “Effect on IL-1β level” value in data set [1] is listed as “significantly reduced”. In data set [2], the “Effect on TNF-α level” value is “significantly reduced”; the IC50 worked out at 5.76 µM; the “TNF-α SI (selectivity index, CC50/IC50)” value came out at 2.53. In data set [3], the viability at 5 µM came to 83.6 ± 8.91%, the viability at 10 µM was 84.29 ± 0.28% and the viability at 20 µM was determined as 3.19 ± 1.24%. Also, in data set [4], the “Effect on p-p38 MAPK levels” value is recorded as “significantly suppressed”. In data set [5], the “Effect on MCP-1 level” value was “significantly reduced”; it took 0.87 µM to reach half-maximal inhibition (IC50); the “MCP-1 SI (selectivity index, CC50/IC50)” value is reported as 16.76. In addition, in data set [6], the IC50 is less than 20 µM.
